From the OligoGym collection
HELM strings list units from the 5' end as sugar, base in round brackets, then linkage (d deoxyribose, r ribose, m 2'-O-methyl, p phosphodiester). Strings are as the collection lists them; they lack the last nucleoside at the 3' end of the tested compound. [moe] = 2'-O-(2-methoxyethyl) (MOE); [sp] = phosphorothioate linkage; [m5C] = 5-methylcytosine

The substances below were run against ATXN2 (assay: mouse, dose not given). Settings: ASO.

Row | Substance | 3 h FOB score [score 0-7]
1 | RNA1{[moe](T)[sp].[moe]([m5C])p.[moe](A)p.[moe](T)p.[moe](G)p.d(G)[sp].d([m5C])[sp].d(T)[sp].d([m5C])[sp].d([m5C])[sp].d(A)[sp].d(A)[sp].d(T)[sp].d(A)[sp].d(T)[sp].[moe]([m5C])p.[moe](G)p.[moe](G)[sp].[moe]([m5C])}$$$$ (last 3' nucleoside missing) | 2.25
2 | RNA1{[moe](T)[sp].[moe]([m5C])p.[moe](A)p.[moe](T)p.[moe](T)p.d(T)[sp].d(T)[sp].d(A)[sp].d(T)[sp].d(T)[sp].d([m5C])[sp].d(T)[sp].d(G)[sp].d([m5C])[sp].d(T)[sp].[moe](T)p.[moe](T)p.[moe](G)[sp].[moe]([m5C])}$$$$ (last 3' nucleoside missing) | 2
3 | RNA1{[moe](T)[sp].[moe]([m5C])p.[moe](A)p.[moe](T)p.[moe]([m5C])[sp].d(A)[sp].d(T)[sp].d(T)[sp].d(T)[sp].d(T)[sp].d([m5C])[sp].d([m5C])[sp].d(A)[sp].[moe](G)p.[moe](G)p.[moe](G)[sp].[moe]([m5C])}$$$$ (last 3' nucleoside missing) | 1
4 | RNA1{[moe](T)[sp].[moe]([m5C])p.[moe](G)p.[moe](T)p.[moe](A)p.d(T)[sp].d(G)[sp].d(T)[sp].d(T)[sp].d(T)[sp].d(G)[sp].d(T)[sp].d([m5C])[sp].d(T)[sp].d(G)[sp].[moe](T)p.[moe]([m5C])p.[moe](T)[sp].[moe](T)}$$$$ (last 3' nucleoside missing) | 6.25
5 | RNA1{[moe](T)[sp].[moe]([m5C])p.[moe](T)p.[moe](A)p.[moe](T)[sp].d(T)[sp].d(T)[sp].d([m5C])[sp].d(T)[sp].d(T)[sp].d(T)[sp].d(G)[sp].d(T)[sp].[moe]([m5C])p.[moe]([m5C])p.[moe](A)[sp].[moe](G)}$$$$ (last 3' nucleoside missing) | 5
6 | RNA1{[moe](T)[sp].[moe]([m5C])p.[moe](T)p.[moe](A)p.[moe](T)p.d(T)[sp].d(T)[sp].d([m5C])[sp].d(T)[sp].d(T)[sp].d(T)[sp].d(G)[sp].d(T)[sp].d([m5C])[sp].d([m5C])[sp].[moe](A)p.[moe](G)p.[moe](G)[sp].[moe](A)}$$$$ (last 3' nucleoside missing) | 6.5
7 | RNA1{[moe](T)[sp].[moe]([m5C])p.[moe](T)p.[moe](G)[sp].[moe](T)[sp].d(A)[sp].d([m5C])[sp].d(T)[sp].d(T)[sp].d(T)[sp].d(T)[sp].d([m5C])[sp].d(T)[sp].d([m5C])[sp].d(A)[sp].[moe](T)p.[moe](G)p.[moe](T)[sp].[moe](G)}$$$$ (last 3' nucleoside missing) | 1
8 | RNA1{[moe](T)[sp].[moe]([m5C])p.[moe](T)p.[moe](G)p.[moe](T)[sp].d(A)[sp].d([m5C])[sp].d(T)[sp].d(T)[sp].d(T)[sp].d(T)[sp].d([m5C])[sp].d(T)[sp].[moe]([m5C])p.[moe](A)p.[moe](T)[sp].[moe](G)}$$$$ (last 3' nucleoside missing) | 0.5
9 | RNA1{[moe](T)[sp].[moe]([m5C])p.[moe](T)p.[moe](G)p.[moe](T)[sp].d(A)[sp].d([m5C])[sp].d(T)[sp].d(T)[sp].d(T)[sp].d(T)[sp].d([m5C])[sp].d(T)[sp].d([m5C])[sp].d(A)[sp].[moe](T)p.[moe](G)p.[moe](T)[sp].[moe](G)}$$$$ (last 3' nucleoside missing) | 0
10 | RNA1{[moe](T)[sp].[moe]([m5C])p.[moe](T)p.[moe](G)p.[moe](T)p.[moe](A)p.d([m5C])[sp].d(T)[sp].d(T)[sp].d(T)[sp].d(T)[sp].d([m5C])[sp].d(T)[sp].d([m5C])[sp].d(A)[sp].d(T)[sp].[moe](G)p.[moe](T)[sp].[moe](G)}$$$$ (last 3' nucleoside missing) | 1
11 | RNA1{[moe](T)[sp].[moe]([m5C])p.[moe](T)p.[moe](G)p.[moe](T)p.d(A)[sp].d([m5C])[sp].d(T)[sp].d(T)[sp].d(T)[sp].d(T)[sp].d([m5C])[sp].d(T)[sp].d([m5C])[sp].d(A)[sp].[moe](T)p.[moe](G)p.[moe](T)[sp].[moe](G)}$$$$ (last 3' nucleoside missing) | 0
12 | RNA1{[moe](T)[sp].[moe]([m5C])p.[moe](T)p.[moe](G)p.[moe]([m5C])[sp].d(T)[sp].d(A)[sp].d(A)[sp].d([m5C])[sp].d(T)[sp].d(G)[sp].d(G)[sp].d(T)[sp].[moe](T)p.[moe](T)p.[moe](G)[sp].[moe]([m5C])}$$$$ (last 3' nucleoside missing) | 2
13 | RNA1{[moe](T)[sp].[moe]([m5C])p.[moe](T)p.[moe](G)p.[moe]([m5C])p.d(T)[sp].d(A)[sp].d(A)[sp].d([m5C])[sp].d(T)[sp].d(G)[sp].d(G)[sp].d(T)[sp].d(T)[sp].d(T)[sp].[moe](G)p.[moe]([m5C])p.[moe]([m5C])[sp].[moe]([m5C])}$$$$ (last 3' nucleoside missing) | 3
14 | RNA1{[moe](T)[sp].[moe]([m5C])p.[moe](T)p.[moe](G)p.d(T)[sp].d(A)[sp].d([m5C])[sp].d(T)[sp].d(T)[sp].d(T)[sp].d(T)[sp].d([m5C])[sp].d(T)[sp].d([m5C])[sp].[moe](A)p.[moe](T)p.[moe](G)p.[moe](T)[sp].[moe](G)}$$$$ (last 3' nucleoside missing) | 0
15 | RNA1{[moe](T)[sp].[moe]([m5C])p.[moe](T)p.[moe](T)p.[moe](G)p.d(T)[sp].d(T)[sp].d(G)[sp].d(T)[sp].d(T)[sp].d(G)[sp].d(T)[sp].d(T)[sp].d(T)[sp].d(A)[sp].[moe]([m5C])p.[moe](A)p.[moe](T)[sp].[moe](T)}$$$$ (last 3' nucleoside missing) | 3
16 | RNA1{[moe](T)[sp].[moe]([m5C])p.[moe](T)p.[moe]([m5C])p.[moe](T)[sp].d(A)[sp].d(T)[sp].d(T)[sp].d(T)[sp].d([m5C])[sp].d(T)[sp].d(T)[sp].d(T)[sp].[moe](G)p.[moe](T)p.[moe]([m5C])[sp].[moe]([m5C])}$$$$ (last 3' nucleoside missing) | 1
17 | RNA1{[moe](T)[sp].[moe]([m5C])p.[moe](T)p.[moe]([m5C])p.[moe](T)p.d(A)[sp].d(T)[sp].d(T)[sp].d(T)[sp].d([m5C])[sp].d(T)[sp].d(T)[sp].d(T)[sp].d(G)[sp].d(T)[sp].[moe]([m5C])p.[moe]([m5C])p.[moe](A)[sp].[moe](G)}$$$$ (last 3' nucleoside missing) | 6.75
18 | RNA1{[moe](T)[sp].[moe]([m5C])p.[moe](T)p.[moe]([m5C])p.[moe]([m5C])[sp].d(A)[sp].d(T)[sp].d(T)[sp].d(A)[sp].d(T)[sp].d(T)[sp].d(T)[sp].d([m5C])[sp].[moe](T)p.[moe](T)p.[moe]([m5C])[sp].[moe](A)}$$$$ (last 3' nucleoside missing) | 1
19 | RNA1{[moe](T)[sp].[moe]([m5C])p.[moe](T)p.[moe]([m5C])p.[moe]([m5C])p.d(A)[sp].d(T)[sp].d(T)[sp].d(A)[sp].d(T)[sp].d(T)[sp].d(T)[sp].d([m5C])[sp].d(T)[sp].d(T)[sp].[moe]([m5C])p.[moe](A)p.[moe]([m5C])[sp].[moe](G)}$$$$ (last 3' nucleoside missing) | 0.75
20 | RNA1{[moe](T)[sp].[moe]([m5C])p.[moe]([m5C])p.[moe](A)p.[moe](A)p.d(G)[sp].d(T)[sp].d(A)[sp].d(A)[sp].d([m5C])[sp].d(A)[sp].d(G)[sp].d(T)[sp].d(G)[sp].d(T)[sp].[moe](A)p.[moe](G)p.[moe](A)[sp].[moe](A)}$$$$ (last 3' nucleoside missing) | 4
21 | RNA1{[moe](T)[sp].[moe]([m5C])p.[moe]([m5C])p.[moe](A)p.[moe](A)p.d(T)[sp].d(T)[sp].d(T)[sp].d([m5C])[sp].d(A)[sp].d(G)[sp].d(A)[sp].d([m5C])[sp].d(T)[sp].d(T)[sp].[moe]([m5C])p.[moe](T)p.[moe](T)[sp].[moe](G)}$$$$ (last 3' nucleoside missing) | 2
22 | RNA1{[moe](T)[sp].[moe]([m5C])p.[moe]([m5C])p.[moe](A)p.[moe](T)p.d(T)[sp].d(A)[sp].d(T)[sp].d(T)[sp].d(T)[sp].d([m5C])[sp].d(T)[sp].d(T)[sp].d([m5C])[sp].d(A)[sp].[moe]([m5C])p.[moe](G)p.[moe](T)[sp].[moe](T)}$$$$ (last 3' nucleoside missing) | 1
23 | RNA1{[moe](T)[sp].[moe]([m5C])p.[moe]([m5C])p.[moe](T)p.[moe](A)[sp].d(T)[sp].d([m5C])[sp].d(A)[sp].d(T)[sp].d([m5C])[sp].d(A)[sp].d(T)[sp].d(T)[sp].[moe](T)p.[moe](T)p.[moe]([m5C])[sp].[moe]([m5C])}$$$$ (last 3' nucleoside missing) | 1
24 | RNA1{[moe](T)[sp].[moe]([m5C])p.[moe]([m5C])p.[moe](T)p.[moe](A)p.d(T)[sp].d([m5C])[sp].d(A)[sp].d(T)[sp].d([m5C])[sp].d(A)[sp].d(T)[sp].d(T)[sp].d(T)[sp].d(T)[sp].[moe]([m5C])p.[moe]([m5C])p.[moe](A)[sp].[moe](G)}$$$$ (last 3' nucleoside missing) | 3.75
25 | RNA1{[moe](T)[sp].[moe]([m5C])p.[moe]([m5C])p.[moe](T)p.[moe](T)p.d(G)[sp].d(T)[sp].d(T)[sp].d(G)[sp].d(T)[sp].d(A)[sp].d(T)[sp].d(G)[sp].d(G)[sp].d(T)[sp].[moe](A)p.[moe](A)p.[moe](T)[sp].[moe](T)}$$$$ (last 3' nucleoside missing) | 5
26 | RNA1{[moe]([m5C])[sp].[moe](A)p.[moe](G)p.[moe](A)p.[moe](A)p.d(A)[sp].d(G)[sp].d([m5C])[sp].d(T)[sp].d(G)[sp].d(T)[sp].d(G)[sp].d(T)[sp].d(G)[sp].d(T)[sp].[moe](T)p.[moe](T)p.[moe](A)[sp].[moe](A)}$$$$ (last 3' nucleoside missing) | 6
27 | RNA1{[moe]([m5C])[sp].[moe](A)p.[moe](G)p.[moe](T)p.[moe](G)p.d(T)[sp].d(T)[sp].d(G)[sp].d([m5C])[sp].d(A)[sp].d([m5C])[sp].d(A)[sp].d(T)[sp].d(A)[sp].d(G)[sp].[moe](G)p.[moe](T)p.[moe](T)[sp].[moe](A)}$$$$ (last 3' nucleoside missing) | 5
